Experimental findings from paper PMC8409585 (The Journal of Clinical Investigation, 2021) are described below.

This test concerns the target T1, mitochondrial electron transport chain complex I (ETCC1), NADH ubiquinone oxidoreductase (Bos taurus, UniProt P03887+P17694+P42026).
T1 construct: gene MT-ND1

In general, pIC50 refers to the negative decadic logarithm of the IC50, by convention in mol/L. Lower therefore signals a high IC50.

pIC50: −log10 of the molar value.

With `C=C(C)[C@@H]1C[C@@]2(C)C(=CC1=O)CC[C@@H](OC(=O)/C(C)=C\C)[C@@H]2C` [PT, petasin], the pIC50 is 5.45.
